Assay results as given in US12370202B2, “Methods and compositions for inhibiting the NLRP3 inflammasome and/or LON protease” (TRITERPENOID THERAPEUTICS, INC., priority 2019, dated 2025).

Columns and labels:
[1] = Drug levels in brain after systemic dosing, HPLC/Mass Spec; assay type: in vivo, Mice
Experimental: Mice (3 per group) were treated with single intraperitoneal (i.p.) doses of either 1 micromole (low dose) or 2 micromoles (high dose) of CDDO-2P-Im in DMSO. Brains were analyzed either 3 or 6 hours after dosing. Brains were homogenized in saline, then extracted with acetonitrile, and the extracts subjected to HPLC/Mass Spec analysis, using appropriate standard curves from spiked homogenates. Values obtained (in nanomoles/kg of brain) were: 270+/−80 (low dose, 3 hours); 300+/−90 (low dose, 6 hours); 2,600+/−2,200 (high dose, 3 hours); and 540+/−260 (high dose, 6 hours).
A second experiment with oral or i.p. dosing of 1 micromole of CDDO-2P-Im, and analysis at 6 hours, confirmed the above results, with drug levels in brain ranging from 140 to 900 nanomoles/kg of brain in 10 different samples from cerebral cortex.

U-87MG = experiment: GBM cell growth (confluence), IncuCyte; assay type: cell-based, human
Experimental: FIG. 8 is a set of line graphs. CDDO-2P-Im suppresses growth of TMZ-resistant human GBM cells in vitro. […] Reduction in confluence is accompanied by the detachment and death of GBM cells. The data reveal that the relatively TMZ-resistant U-87MG is equivalent to LN227 in its sensitivity to CDDO-2P-Im.
(§1) To define the capacity of CDDO-2P-IM to suppress the growth and viability of GBM, several well-characterized human GBM cell lines (U251, U-87MG, LN227, Gli36Δ5), primary cultures of patient-derived GBM cells (UVM04, D028), and normal human astrocytes (provided by Dr. Arti Gaur, Dartmouth College) were utilized.
(§2) The activity of CDDO-2P-IM in cultures of human GBM was assessed and similar nanomolar (nM) potency was observed. […] These changes in confluence observed by Incucyte® corresponded with a reduction in cell viability. Doses of CDDO-2P-IM that result in complete cell death of the LN227, U251 and U-87MG cell lines had no effect on the viability of primary human astrocytes in vitro (not shown).

primary human astrocytes = experiment: Viability of primary human astrocytes; assay type: cell-based; settings: doses that result in complete cell death of LN227, U251 and U-87MG; not shown
Experimental: as §1, §2

5T33MM cells = experiment: 5T33MM syngeneic preclinical model of multiple myeloma; assay type: in vivo
Description: FIG. 1 is a survival curve. Survival of mice receiving either ixazomib (IXZ) or CDDO-2P-Im starting 21 days after tumor cell injection (n=5 mice per group). CDDO-2P-Im is active in the […] preclinical model of multiple myeloma.
A well-characterized syngeneic model of MM was employed. Adoptive transfer of 5T33MM cells into C57BL/KaLwRij recipient mice invariably leads to MM bone disease, impaired hematopoietic function and death.
To monitor MM tumor progression in the 5T33MM preclinical model, a 5T33MM cell line that expresses either luciferase or GFP genes was established by transducing with lentiviral particles containing firefly luciferase and GFP genes (Amsibo, Cambridge, MA); cells were selected with FACS sorting for GFP expression and by puromycin-resistance. For these experiments, 1×10^6 5T33MM-luc cells were introduced by intravenous injection into C57BL/KaLwRij mice at 2 months of age. Bioluminescence (BLI) was measured by using the IVIS Imaging System 100 (Xenogen). At 3 weeks after 5T33MM cell inoculation (where mice have established disease by BLI), mice were randomized to receive either vehicle, CDDO-2P-IM ([…] daily administered by oral gavage (po), 5 days/week), or ixazomib (IXZ; 6 mg/kg per week, administered po every Monday, Wednesday and Friday).

CC1(C)CC[C@]2(C(=O)n3cnc(-c4ccccn4)c3)CC[C@]3(C)[C@H](C(=O)C=C4[C@@]5(C)C=C(C#N)C(=O)C(C)(C)[C@@H]5CC[C@]43C)[C@@H]2C1 [CDDO-2P-Im, 1-[2-Cyano-3,12-dioxooleana-1,9(11)-dien-28-oyl]-4(-pyridin-2-yl)-1H-imidazole]
level in brain ([1]; single i.p. 1 micromole (low dose) in DMSO, 3 hours): 270+/−80 nanomoles/kg of brain | level in brain ([1]; single i.p. 1 micromole (low dose) in DMSO, 6 hours): 300+/−90 nanomoles/kg of brain | level in brain ([1]; single i.p. 2 micromoles (high dose) in DMSO, 3 hours): 2,600+/−2,200 nanomoles/kg of brain | level in brain ([1]; single i.p. 2 micromoles (high dose) in DMSO, 6 hours): 540+/−260 nanomoles/kg of brain | confluence (growth) (U-87MG; nanomolar concentrations): dose-dependent reduction | GBM cell kill, combination with TMZ (U-87MG; suboptimal dose of CDDO-2P-Im combined with TMZ, significance at 0.005 or greater): significant gain | viability (primary human astrocytes): no effect | anti-MM activity (survival) as a single agent (5T33MM cells; daily oral gavage 5 days/week from 3 weeks after 5T33MM-luc inoculation, compared to IXZ 6 mg/kg per week po): comparable to or better than IXZ | tolerability (5T33MM cells; daily oral regimen): well tolerated
